Measured values reported in patent US7855309B2, “Pesticide benzyloxy- and phenetyl-substituted phenyl-amidine derivatives” (Bayer CropScience AG, priority 2005, dated 2010).
Where two headings read alike, the source gives them in different places.

Key:
[1] = logP by HPLC on reversed-phase column (EEC Directive 79/831 Annex V.A8); format: physicochemical; conditions: for chromatographic logP: reversed-phase HPLC column (C18)
Experimental: Temperature: 40° C.; Mobile phases: 0.1% aqueous formic acid and acetonitrile; linear gradient from 10% acetonitrile to 90% acetonitrile.
Calibration was carried out using unbranched alkan-2-ones (comprising 3 to 16 carbon atoms) with known logP values (determination of the logP values by the retention times using linear interpolation between two successive alkanones).

Aedes aegypti larvae = assay: In vivo protective test on Aedes aegypti (AEDSAE U)
Experimental: In Vivo Protective Test on Aedes Aegypti (AEDSAE U)
Solvent: 1% N-methylpyrrolidone (NMP)
• 1% diacetonealcohol Dye: brillantsulfoflavin for staining water
To produce a suitable preparation of the active compound, the active compound is mixed with the stated amount of solvent, and the concentrate is diluted with staining water to the desired concentration.
Aedes aegypti larvae are pipetted with a preparation of active ingredient of the desired concentration.
After the specified period of time, mortality in % is determined. 100% means that all larvae have been killed, a 0% means that none of the larvae have been killed.

Myzus persicae = assay: In vivo protective test on Myzus persicae (MYZUPE); conditions: Chinese cabbage leaf-disks, all instars, spray
Experimental: In Vivo Protective Test on Myzus persicae (MYZUPE)
(§1) Solvent: 78 parts by weight acetone
• 1.5 parts by weight dimethylformamide Dye: 0.5 parts by weight alkylarylpolyglcolether
(§2) To produce a suitable preparation of active compound, 1 part by weight of active compound is mixed with the stated amount of solvent and emulsifier, and the concentrate is diluted with emulsifier-containing water to the desired concentration.
Chinese cabbage (Brassica pekinesis) leaf-disks infected with all instars of the green peach aphid (Myzus persicae), are sprayed with a preparation of the active ingredient at the desired concentration.
After the specified period of time, mortality in % is determined. 100% means that all aphids have been killed; 0% means that none of the aphids have been killed.

Heliothis viresens = assay: In vivo protective test on Heliothis virescens (HELIVI); set-up: species or system Heliotis virescens; conditions: soybean leaf sections, eggs
Experimental: In Vivo Protective Test on Heliothis viresens (HELIVI)
as §1
• 1.5 parts by weight dimethylformamide Wetting agent: 0.5 parts by weight alkylarylpolyglcolether
as §2
Soybean (Glycine max.) leaf sections are sprayed with a preparation of the active ingredient of the desired concentration. Once dry, the leaf sections are infested with eggs of cotton bollworm (Heliotis virescens).
After the specified period of time, mortality in % is determined. 100% means that all eggs have been killed and 0% means that none of the eggs have been killed.

[2] = HPLC, C18, 40° C., 0.1% aqueous formic acid and acetonitrile
[3] = pH 2.3, read-out: log P (pH 2.3)

Row | Compound | log P [1, 2] | activity (mortality) (Myzus persicae) | also measured
1 | CCN(C)C=Nc1cc(C)c(OCc2ccc(Cl)cc2)cc1C [Compound 1] | 2.14 |  | activity (mortality) (Aedes aegypti larvae): good activity
2 | CCN(C)C=Nc1cc(C)c(OCc2c(Cl)cccc2Cl)cc1C [Compound 3] | 2.05 | good activity | activity (mortality) (Aedes aegypti larvae): good activity
3 | CCN(C)C=Nc1cc(C)c(OC(C)c2c(Cl)cccc2Cl)cc1C (stereo not shown) [Compound 4] | 2.52 |  | activity (mortality) (Aedes aegypti larvae): good activity
4 | CCN(C)C=Nc1cc(C)c(OC(C)c2ccc(F)cc2)cc1C (stereo not shown) [Compound 6] | 2.08 |  | activity (mortality) (Aedes aegypti larvae): good activity; activity (mortality) (Heliothis viresens): good activity
5 | CCN(C)C=Nc1cc(C)c(OCc2cccc(Cl)c2)cc1C [Compound 7] | 2.13 |  | activity (mortality) (Aedes aegypti larvae): good activity; activity (mortality) (Heliothis viresens): good activity
6 | CCN(C)/C=N/c1cc(C)c(OCc2cccc(C(F)(F)F)c2)cc1C [Compound 9, N′-(2,5-dimethyl-4-{[3-(trifluoromethyl)benzyl]oxy}phenyl)-N-ethyl-N-methylimidoformamide] |  |  | chromatographic logP [1, 3]: 2.24; chromatographic logP ([1]; HPLC, C18, 40° C., 0.1% aqueous formic acid and acetonitrile, read-out: log P): 2.24; activity (mortality) (Aedes aegypti larvae): good activity
7 | CCN(C)C=Nc1cc(C)c(OCc2ccc(Cl)c(Cl)c2)cc1C [Compound 13] | 2.38 | good activity | activity (mortality) (Aedes aegypti larvae): good activity
8 | CCN(C)C=Nc1cc(C)c(OCc2ccc(C(F)(F)F)cc2)cc1C [Compound 14] | 2.28 |  | activity (mortality) (Aedes aegypti larvae): good activity
9 | CCN(C)C=Nc1cc(C)c(OCc2ccccc2OC(F)(F)F)cc1C [Compound 16] | 2.28 | good activity | 
10 | CCN(C)C=Nc1cc(C)c(OCc2ccc(Cl)cc2C(F)(F)F)cc1C [Compound 18] | 2.52 | good activity | activity (mortality) (Aedes aegypti larvae): good activity
11 | CCN(C)C=Nc1cc(C)c(OCc2cc(Cl)cc(C(F)(F)F)c2)cc1C [Compound 19] | 2.54 | good activity | 
12 | CCN(C)C=Nc1cc(C)c(OCc2cc(C(F)(F)F)ccc2Cl)cc1C [Compound 20] | 2.44 | good activity | 
13 | CCN(C)C=Nc1cc(C)c(OCc2ccc(C(F)(F)F)cc2Cl)cc1C [Compound 25] | 2.47 | good activity | 
14 | CCN(C)C=Nc1cc(C)c(OC(C)c2ccccc2Cl)cc1C (stereo not shown) [Compound 29] | 2.24 | good activity | activity (mortality) (Aedes aegypti larvae): good activity
15 | CCN(C)C=Nc1cc(C)c(OC(C)c2cccc(Cl)c2)cc1C (stereo not shown) [Compound 30] | 2.23 | good activity | 
16 | CCN(C)C=Nc1cc(C)c(OC(C)c2ccc(Cl)cc2)cc1C (stereo not shown) [Compound 31] | 2.26 | good activity | 
17 | CCN(C)C=Nc1cc(C)c(CCc2cc(C(F)(F)F)cc(C(F)(F)F)c2)cc1C [Compound 35] | 2.79 | good activity | 
18 | CCN(C)C=Nc1cc(C)c(OCc2cccc(OCC(F)(F)F)c2)cc1C [Compound 49] | 2.21 | good activity | 
19 | CCN(C)C=Nc1cc(C)c(OCc2ccc(Oc3ccc(F)cc3)cc2)cc1C [Compound 52] | 2.8 | good activity | 
20 | CCN(C)C=Nc1cc(C)c(OCc2cc(C)ccc2C)cc1C [Compound 56] | 2.23 | good activity | 
21 | CCN(C)C=Nc1cc(C)c(OCc2c(F)cccc2Cl)cc1C [Compound 61] | 2.09 | good activity | 
22 | CCN(C)C=Nc1cc(C)c(OCc2ccc(C)c(C)c2)cc1C [Compound 64] | 2.23 | good activity | 
23 | CCN(C)C=Nc1cc(C)c(OCc2cccc(Br)c2)cc1C [Compound 65] | 2.18 | good activity | 

Row | Compound | log P [1, 2] | activity (mortality) (Myzus persicae) | also measured
24 | CCN(C)C=Nc1cc(C)c(OCc2ccccc2SC(F)(F)F)cc1C [Compound 68] | 2.36 | good activity | 
25 | CCN(C)C=Nc1cc(C)c(OCc2cccc(SC(F)(F)F)c2)cc1C [Compound 69] | 2.45 | good activity | 
26 | CCN(C)C=Nc1cc(C)c(OCc2ccc(Oc3ccc(SC)cc3)cc2)cc1C [Compound 72] | 2.74 | good activity | 
27 | CCN(C)C=Nc1cc(C)c(OCc2ccc(Oc3ccc(Cl)cc3)cc2)cc1C [Compound 73] | 2.8 | good activity | 
28 | Cc1cc(OCc2cccc(OC(F)(F)F)c2)c(C)cc1N=CN1CCCCC1 [Compound 113] | 2.39 |  | 
29 | Cc1cc(OCc2cccc(SC(F)(F)F)c2)c(C)cc1N=CN1CCCCC1 [Compound 114] | 2.48 |  | 
30 | Cc1cc(OCc2ccc(SC(F)(F)F)cc2)c(C)cc1N=CN1CCCCC1 [Compound 115] | 2.55 |  | 
31 | Cc1cc(OCc2ccc(Cl)cc2C(F)(F)F)c(C)cc1N=CN1CCCCC1 [Compound 116] | 2.55 |  | 
32 | Cc1ccc(COc2cc(C)c(N=CN3CCCCC3)cc2C)cc1Cl [Compound 117] | 2.39 |  | 
33 | Cc1cc(OCc2cc(Cl)cc(C(F)(F)F)c2)c(C)cc1N=CN1CCCCC1 [Compound 118] | 2.61 |  | 
34 | Cc1cc(OCc2cc(C(F)(F)F)ccc2Cl)c(C)cc1N=CN1CCCCC1 [Compound 119] | 2.58 |  | 
35 | Cc1cc(OCc2cccc(C#N)c2)c(C)cc1N=CN1CCCCC1 [Compound 120] | 1.9 |  | 
36 | COc1cc(COc2cc(C)c(N=CN3CCCCC3)cc2C)ccc1F [Compound 121] | 2.06 |  | 
37 | Cc1cc(OCc2ccc(OC(F)(F)F)cc2)c(C)cc1N=CN1CCCCC1 [Compound 122] | 2.42 |  | 
38 | Cc1cc(OCc2ccccc2C(F)(F)F)c(C)cc1N=CN1CCCCC1 [Compound 123] | 2.29 |  | 
39 | Cc1ccc(COc2cc(C)c(N=CN3CCCCC3)cc2C)cc1 [Compound 124] | 2.23 |  | 
40 | Cc1cc(OCc2ccc(OC(F)F)cc2)c(C)cc1N=CN1CCCCC1 [Compound 125] | 2.16 |  | 
41 | Cc1cc(OCc2ccc(C(F)(F)F)cc2)c(C)cc1N=CN1CCCCC1 [Compound 126] | 2.58 |  | 
42 | Cc1cc(OCc2ccccc2OC(F)F)c(C)cc1N=CN1CCCCC1 [Compound 127] | 2.13 |  | 
43 | Cc1cc(OCc2ccc3nsnc3c2)c(C)cc1N=CN1CCCCC1 [Compound 128] | 1.99 |  | 
44 | Cc1cc(OCc2ccc(Cl)c(C(F)(F)F)c2)c(C)cc1N=CN1CCCCC1 [Compound 129] | 2.51 |  | 
45 | CCN(C)/C=N/c1cc(C)c(I)cc1C [Intermediate (V-1), N′-(4-iodo-2,5-dimethylphenyl)-N-ethyl-N-methylimidoformamide] |  |  | chromatographic logP [1, 3]: 1.21
